Experimental data: patent US20120015331A1, “SCAFFOLD” (priority 2009, published 2012)
Where a name gives a salt, the structure may show the parent alone.

Tests used:
L. Casei = assay: Bacterial killing assay (PDT, Example 5); format: cell-based; details: 22 μM erythrosine in BHI broth
Description: L. Casei is a known constituent of gut microflora. A growth curve for L. Casei both in the presence and without erythrosine was prepared using broth turbidity measured by spectrophotometry using a Shimadzu UV-1601 UV-Visible spectrophotometer. L. Casei were grown in Brain Heart Infusion (BHI) liquid broth at 37° C. to stationary phase overnight. A fresh volume of BHI broth containing erythrosine released from the scaffold at a concentration known to be effective for PDT was inoculated using the stationary phase culture and incubated at 37° C. in a shaking incubator. Bacteria were also incubated in BHI with non scaffold derived erythrosine, BHI containing an equal concentration of scaffold breakdown products from a non erythrosine containing scaffold or blank scaffold and BHI alone with no additives. Since bacteria are most sensitive to PDT during log phase this was chosen as the time most appropriate for irradiation therefore irradiation took place 2 hours 30 minutes after inoculation. […] Following irradiation bacterial viability was assessed by spreading broth samples on Columbia blood agar plates and following 48 hour incubation counting the number of visible colonies. The number of colony forming units (cfu)/ml of broth were then calculated. […]

L casei = L casei cultures in BHI with additives, foil-wrapped or exposed to light (Example 16); format: cell-based
Description: Pieces of blank PGA scaffold and PGA scaffold containing 5 w/w % erythrosine B were incubated overnight in BHI and the scaffold was removed before adding L Casei culture, the erythrosine B concentration was measured and adjusted to 22 μM. For each of the ‘media’ shown in Table 1, two tubes of culture, one tube wrapped in foil, were exposed to light for 30 minutes. After exposure to light, serial dilutions were made of the cultures in BHI which were then grown on Columbian blood agar plates for 48 hours. The number of colonies on the plates was then counted and those having between 30 and 300 colonies were used to calculate the cfu/ml for the cultures. […] PDT (erythrosine plus light) causes 6 logs of cell kill, whereas in the presence of glycolic acid released from the scaffold (or added to a similar concentration out of a bottle), the amount of cell killing doubles or more.

## O=C1OC2(c3ccccc31)c1cc(I)c(O)c(I)c1Oc1c2cc(I)c(O)c1I [Erythrosin B, disodium salt of 2′,4,′5,′7′-tetraiodofluorescein]
L. Casei; 10 minutes irradiation
  log10 kill: 6.1 log10
L. Casei; 30 minute irradiation
  log10 kill: 6.4 log10
L casei; 22 μM, light for 30 minutes
  cell kill by PDT (erythrosine plus light): 6 logs
L casei; BHI, 30 minutes, foil-wrapped, erythrosin 22 μM where present
  colony forming units, culture tubes wrapped in foil and exposed to light (F): 2.75 × 10^8 cfu/ml
L casei; BHI, exposed to light for 30 minutes, erythrosin 22 μM where present
  colony forming units, culture tubes exposed to light (L): 2.1 × 10^2 cfu/ml
